Laboratory results published in US20100004330A1, “ANTI-OXIDATIVE CONTENT MATERIAL USED IN DRINK AND FOOD MANUFACTURING METHOD” (priority 2008, published 2010).

Experiments:
[1] = test system: thiobarbituric acid-reactive substances (TBARS), lipid peroxidation; conditions: single carotenoid; Control (no antioxidants) 100 ± 9; cited from earlier work
[2] = test system: macular degeneration; conditions: person ingesting 6 mg per day; cited from earlier work
[3] = test system: tissue factor; conditions: added into micro-emulsion; 0.5, 2 and 10 μmol/L; P<0.01; cited from earlier work
[4] = antioxidant activity testing (DPPH scavenging activity); type: biochemical; conditions: corresponds to ppm VitE
From the text: According to the present invention, the products of the Beta-carotene, lutein, lycopene, and of mixture of these three (in 0.5:4:4 optimal weight ratio) from the Allied Biochemical Industrial Co., Ltd were sent to “Food Industrial Research And Development Institute” (331 Shih-Pin Road, Hsinchu, 300 Taiwan) for antioxidant activity testing (DPPH scavenging activity).

[5] = test system: myocardial infarction; conditions: contrast of the 10th and 90th percentiles of carotenoid level in adipose tissue; cited from earlier work
[6] = test system: cardiovascular disease; conditions: middle-aged or elderly; cited from earlier work

In the case of `CC1=C[C@H](O)CC(C)(C)[C@H]1/C=C/C(C)=C/C=C/C(C)=C/C=C/C=C(C)/C=C/C=C(C)/C=C/C1=C(C)C[C@@H](O)CC1(C)C` [Lutein], the “TBARS (%) measured” value [1] is listed as 77 ± 9%, the “lower risk for macular degeneration” value [2] is listed as 43% and the tissue factor activity [3] is listed as “suppress tissue factor activity”. The Scavenging rate/g [4] was “correspond to 7.69 × 10^2 ppm VitE”.

In the case of `CC(C)=CCC/C(C)=C/C=C/C(C)=C/C=C/C(C)=C/C=C/C=C(C)/C=C/C=C(C)/C=C/C=C(\C)CCC=C(C)C` [Lycopene], the “TBARS (%) measured” value [1] is listed as 25 ± 10%, the tissue factor activity [3] is listed as “suppress tissue factor activity” and the Scavenging rate/g [4] is listed as “correspond to 2.35 × 10^4 ppm VitE”. The “odds ratio, myocardial infarction” value [5] was 0.52.

In the case of `CC1=C(/C=C/C(C)=C/C=C/C(C)=C/C=C/C=C(C)/C=C/C=C(C)/C=C/C2=C(C)CCCC2(C)C)C(C)(C)CCC1` [β-carotene], the “TBARS (%) measured” value [1] is given as 73 ± 9%, the “reduction of the risk of cardiovascular disease” value [6] is given as 45% and the tissue factor activity [3] is given as “suppress tissue factor activity”. The Scavenging rate/g [4] was “correspond to 7.08 × 10^3 ppm VitE”.
